In series [1] the test system is BACE1 (Aβ40 from cells stably expressing Amyloid Precursor Protein). Put plainly: In vitro BACE1 cell-based assay (Aβ40 in conditioned medium, HTRF). The gist of the method:
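APP-stably expressing cells treated with compounds in 22-point dose response from 62.5 μM top concentration (0.625% final DMSO) for 24 h at 37° C in DMEM/10% FBS. Secreted Aβ40 in conditioned medium quantified by HTRF using ConfAb40 and biotinylated 6E10 with streptavidin-APC, 30-60 min at 23° C.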
(In general: TR-FRET usually uses a lanthanide donor and a delayed reading to cut background.)

For series [2], the target named is human recombinant BACE2 (Homo sapiens (Human), UniProt Q9Y5Z0). Put plainly: In vitro enzymatic BACE2 FRET assay. The format is biochemical. The note with it: read-out: BACE2 Enzyme IC50. The gist of the method: (§1)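 Ni-NTA-purified recombinant human BACE1 or BACE2 cleaved a 50 nM internally quenched peptide FRET substrate for one hour. Reactions were stopped with tris buffer raising pH to neutrality. Fluorescence was read at ex 488/em 590 nm.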

Series [3] deals with human recombinant BACE1 (Homo sapiens (Human), UniProt P56817). The experiment in a line: In vitro enzymatic BACE1 FRET assay. The following applies: read-out: BACE1 Enzyme IC50. The format is biochemical. The method in brief: as §1
Series [4] has as its system β-secretase (Aβ peptide levels). The experiment in a line: In vivo inhibition of β-secretase (Aβ reduction in rat CSF and brain). An excerpt:
In vivo Inhibition of β-Secretase
Several animal models, including mouse, rat, dog, and monkey, may be used to screen for inhibition of β-secretase activity in vivo following administration of a test compound. […] Animals to be used in this experiment can be wild type, transgenic, or gene knockout animals. For example, the Tg2576 mouse model, prepared and conducted as described in Hsiao et al., Science 274:99-102 (1996), and other non-transgenic or gene knockout animals are useful to analyze in vivo inhibition of Aβ peptide production in the presence of test compounds.
Generally, 2 to 18 month old Tg2576 mice, gene knockout mice or non-transgenic animals are administered test compounds formulated in vehicles, such as cyclodextran, phosphate buffers, hydroxypropyl methylcellulose or other suitable vehicles. One to twenty-four hours following the administration of compound, animals are sacrificed, and brains as well as cerebrospinal fluid (CSF) and plasma are removed for analysis of Aβ levels and test compound concentrations (Dovey et al., J. Neurochem., 76(1):173-181 (2001)) Beginning at time 0, animals are administered by oral gavage, or other means of delivery such as intravenous injection, an inhibitory test compound of up to 100 mg/kg in a standard, conventional formulation, such as 2% hydroxypropyl methylcellulose, 1% Tween80. A separate group of animals receive 2% hydroxypropyl methylcellulose, 1% Tween80 alone, containing no test compound, and serve as a vehicle-control group. At the end of the test period, animals are sacrificed and brain tissues, plasma or cerebrospinal fluid are collected. Brains are either homogenized in 10 volumes (w/v) of 0.2% diethylamine (DEA) in 50 mM NaCl (Best et al., J. Pharmacol. Exp. Ther. 313(2):902-908 (2005)), or in 10 volumes of 0.5% TritonX-100 in Tris-buffered saline (pH at about 7.6). Homogenates are centrifuged at 355,000 g, 4° C. for 30 minutes. CSF or brain supernatants are then analyzed for the presence of Aβ by specific sandwich ELISA assays based on ECL (Electrochemiluminescence) technology. For example, rat Aβ40 is measured using biotinylated-4G8 (Signet) as a capture antibody and Fab40 (an in-house antibody specific to the C-terminal of Aβ40) as a detection antibody. For example, 4 hours after administration of 30 mg/kg oral dose of the test compound in 2% hydroxypropyl methylcellulose, 1% Tween80 (pH2.2) to 200 g male Sprague Dawley rats, Aβ peptide levels are measured for reduction by X % and Y % in cerebrospinal fluid and brain, respectively, when compared to the levels measured in the vehicle-treated or control mice. Alternatively, the antibody sold with the V-PLEX abeta40 Peptide (4G8) Kit, commercially available from Meso Scale Diagnostics (MSD), Rockville, Md. 20850-3173 (Catalog NO. K150SJE-1) may be used in this assay.
The results presented in Table 3 were obtained using certain compounds described herein in the in vivo protocol described above.

The target in series [5] is Recombinant CatD (Homo sapiens (Human), UniProt P07339). Put plainly: In vitro enzymatic Cathepsin D (CatD) FRET assay. The format is biochemical. The following applies: read-out: Cat D Enzyme IC50. The gist of the method:
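Recombinant human CatD, expressed in CHO cells, was run in 0.05 M citrate pH 3.5 with 10% DMSO final and 5 mM CHAPS. Reactions were started with 20 nM quenched FRET peptide and incubated 1 h. Tris buffer was added to neutralize the pH before reading fluorescence at ex 500/em 580 nm.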

Series [6] deals with Aβ peptide levels in the CSF and plasma. The following applies: nonhuman primates; cited from earlier work.
In series [7] the test system is Aβ peptide in CSF. The following applies: oral dose of 95 mg once daily; cited from earlier work.
For series [8], the system named is pigment epithelium of the rat's eye. The note with it: higher compound dose given for three months; cited from earlier work.
For series [9], the system named is CSF Aβ peptide concentrations. The following applies: cited from earlier work.
Where [10] appears, read: Aβ40, 24 h incubation, read-out: BACE1 Cell IC50.

Where two headings read alike, the source gives them in different places.

Chain of Recombinant CatD (P07339 65-412): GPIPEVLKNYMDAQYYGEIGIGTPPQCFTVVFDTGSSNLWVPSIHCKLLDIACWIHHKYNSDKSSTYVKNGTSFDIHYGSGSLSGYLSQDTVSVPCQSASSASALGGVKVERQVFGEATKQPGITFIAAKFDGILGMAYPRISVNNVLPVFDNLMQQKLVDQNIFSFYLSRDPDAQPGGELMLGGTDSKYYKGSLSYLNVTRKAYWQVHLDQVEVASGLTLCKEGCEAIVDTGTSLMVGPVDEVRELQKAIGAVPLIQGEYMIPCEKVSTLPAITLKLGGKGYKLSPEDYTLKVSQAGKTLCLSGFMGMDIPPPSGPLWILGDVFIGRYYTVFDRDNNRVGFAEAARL
Chain of human recombinant BACE2 (Q9Y5Z0 63-518): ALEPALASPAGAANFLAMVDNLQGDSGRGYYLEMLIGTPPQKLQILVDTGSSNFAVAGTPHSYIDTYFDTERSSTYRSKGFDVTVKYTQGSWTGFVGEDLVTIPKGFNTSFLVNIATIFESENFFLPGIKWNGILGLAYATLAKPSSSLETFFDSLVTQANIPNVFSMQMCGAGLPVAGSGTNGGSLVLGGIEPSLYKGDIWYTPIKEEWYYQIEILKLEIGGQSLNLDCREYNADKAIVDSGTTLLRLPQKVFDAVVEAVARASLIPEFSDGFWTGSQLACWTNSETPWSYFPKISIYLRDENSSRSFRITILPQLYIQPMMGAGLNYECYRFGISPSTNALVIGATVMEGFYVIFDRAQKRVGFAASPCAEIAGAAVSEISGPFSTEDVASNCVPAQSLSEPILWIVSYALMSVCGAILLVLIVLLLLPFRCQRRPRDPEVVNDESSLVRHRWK
Chain of human recombinant BACE1 (P56817 46-501): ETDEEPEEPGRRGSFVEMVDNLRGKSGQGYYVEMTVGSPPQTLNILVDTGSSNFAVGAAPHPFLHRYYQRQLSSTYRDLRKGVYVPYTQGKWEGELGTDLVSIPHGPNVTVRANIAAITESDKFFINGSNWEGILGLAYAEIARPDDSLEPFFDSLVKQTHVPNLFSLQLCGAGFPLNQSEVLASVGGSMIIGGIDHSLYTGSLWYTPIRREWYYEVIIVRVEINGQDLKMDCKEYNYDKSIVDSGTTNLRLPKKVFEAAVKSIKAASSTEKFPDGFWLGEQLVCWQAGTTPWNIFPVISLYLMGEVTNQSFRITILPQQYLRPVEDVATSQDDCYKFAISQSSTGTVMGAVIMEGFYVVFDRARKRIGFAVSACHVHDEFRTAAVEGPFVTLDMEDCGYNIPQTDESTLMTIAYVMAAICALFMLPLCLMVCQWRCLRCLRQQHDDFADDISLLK

On to `C#CCOc1cnc(/C(F)=C/c2ccc(F)c([C@]34CN(C(C)=O)C[C@H]3CSC(N)=N4)c2)cn1` [Example 118, 1-((4aR,7aS)-2-amino-7a-(2-fluoro-5-((Z)-2-fluoro-2-(5-(prop-2-yn-1-yloxy)pyrazin-2-yl)vinyl)phenyl)-4a,5,7,7a-tetrahydropyrrolo[3,4-d][1,3]thiazin-6(4H)-yl)ethanone], for which the IC50 in series [1] (setting [10]) is 0.0198 µM; in series [2], 394 nM; in series [3], 7.45 nM; in [5], 125000 nM. Also, in series [4], the “% Aβ reduction in rat CSF at 10 mpk” value is reported as 43%. Besides, in [4], the “% Aβ reduction in rat brain at 10 mpk” value is recorded as 43%.
For `N#Cc1ccc(/C(F)=C/c2ccc(F)c([C@]34CO[C@H](C(F)(F)F)[C@H]3CSC(N)=N4)c2)nc1` [Example 126, 6-((Z)-2-(3-((4aS,5S,7aS)-2-amino-5-(trifluoromethyl)-4a,5,7,7a-tetrahydro-4H-furo[3,4-d][1,3]thiazin-7a-yl)-4-fluorophenyl)-1-fluorovinyl)nicotinonitrile], the concentration for half-maximal inhibition (IC50) in [1] (setting [10]) came to 0.00574 µM; in series [2], 334 nM; in series [3] it was 20.1 nM; in series [5] it was 292000 nM. In series [4], the “% Aβ reduction in rat CSF at 10 mpk” value is 83%. For the same compound, the “% Aβ reduction in rat brain at 10 mpk” value in series [4] came out at 80%.
In the case of `N#Cc1cnc(/C(F)=C/c2ccc(F)c([C@]34CO[C@H](C(F)(F)F)[C@H]3CSC(N)=N4)c2)cn1` [Example 128, 5-((Z)-2-(3-((4aS,5S,7aS)-2-amino-5-(trifluoromethyl)-4a,5,7,7a-tetrahydro-4H-furo[3,4-d][1,3]thiazin-7a-yl)-4-fluorophenyl)-1-fluorovinyl)pyrazine-2-carbonitrile], the half-maximal inhibitory concentration (IC50) in [1] (24 h, read-out: BACE1 Cell IC50 (μM)) came out at 0.00364 µM; in series [2], 341 nM; in series [3], 15.3 nM; in series [5] it was 418000 nM. Also, in [4], the “% Aβ reduction in rat CSF at 10 mpk” value came to 79%. The “% Aβ reduction in rat brain at 10 mpk” value in series [4] is 77%.
Take `N#Cc1cnc(/C(F)=C/c2ccc(F)c([C@]34CO[C@H](C(F)(F)F)[C@H]3CSC(N)=N4)c2)c(Cl)c1` [Example 140, 6-((Z)-2-(3-((4aS,5S,7aS)-2-amino-5-(trifluoromethyl)-4a,5,7,7a-tetrahydro-4H-furo[3,4-d][1,3]thiazin-7a-yl)-4-fluorophenyl)-1-fluorovinyl)-5-chloronicotinonitrile]: the IC50 is 0.0482 µM in series [1] (setting [10]), 220 nM in [2], 8.7 nM in series [3] and 333000 nM in [5].
Taken in the same sequence, the figures for `N#Cc1ccc(/C(F)=C/c2ccc(F)c([C@]34CO[C@H](C(F)F)[C@H]3CSC(N)=N4)c2)nc1` [Example 144, 6-((Z)-2-(3-((4aS,5S,7aS)-2-amino-5-(difluoromethyl)-4a,5,7,7a-tetrahydro-4H-furo[3,4-d][1,3]thiazin-7a-yl)-4-fluorophenyl)-1-fluorovinyl)nicotinonitrile] were 0.0181 µM, 741 nM, 21.6 nM and greater than 400000 nM.
The corresponding values for `N#Cc1ccc(/C(F)=C/c2ccc(F)c([C@@]34CO[C@@H](C(F)F)[C@@H]3CSC(N)=N4)c2)nc1` [Example 145, 6-((Z)-2-(3-((4aR,5R,7aR)-2-Amino-5-(difluoromethyl)-4a,5-dihydro-4H-furo[3,4-d][1,3]thiazin-7a(7H)-yl)-4-fluorophenyl)-1-fluorovinyl)nicotinonitrile] are 0.041 µM, 1400 nM, 48.5 nM and greater than 400000 nM.
Take `C[C@H]1OC[C@]2(c3cc(NC(=O)c4cnc(C(F)F)cn4)ccc3F)N=C(N)SC[C@H]12` [Example E2609]: the “Aβ peptide levels in the CSF and plasma” value in series [6] is “significant reduction in Aβ peptide levels in the CSF and plasma”.
With `C[C@@]1(c2cc(NC(=O)c3ccc(C#N)cn3)ccc2F)C=CSC(N)=N1` [JNJ-54861911], the “Aβ peptide reduction in CSF” value in series [7] was “up to 95%”.
With `C[C@@]1(c2cc(-c3cncnc3)c(F)cc2F)CCSC(N)=N1` [LY 2811376], in series [8], the eye toxicity finding entry is on record as “damaged the pigment epithelium of the rat's eye”.
Take `CN1C(=N)N[C@](C)(c2cc(NC(=O)c3ccc(F)cn3)ccc2F)CS1(=O)=O` [MK-8931]: the “CSF Aβ peptide concentrations” value in series [9] (human, in vivo) is “significantly reduced CSF Aβ peptide concentrations in a sustained and dose-dependent manner”. Moreover, the safety profile entry in series [9] (phase I clinical trials) is recorded as “excellent safety profile with no immediately noticeable side effects”.

One may read the IC50 as the concentration that inhibits the measured activity by half.

Values taken from patent publication US11548903B2, “Bicyclic thiazine and oxazine derivatives as beta-secretase inhibitors and methods of use” (AMGEN INC., priority 2016, dated 2023).
